In US4954523A, “Benzophenone oxime ether compounds, pharmaceutical compositions and treatment methods” (Eisai Co., Ltd., priority 1986, dated 1990):
Where two headings read alike, the source gives them in different places.

Assays:
[1] = tested on: platelets (aggregation induced with collagen, arachidonic acid, ADP or PAF); assay: Effect in inhibiting aggulutination of platelets (in vitro), human platelet-rich plasma; type: cell-based
Method: 1. Effect in inhibiting aggulutination of platelets […]
The blood was collected from a human cubital vein in such a manner as to contain a 3.8% solution of sodium citrate in an amount 1.10 time by volume as much as the blood. Then platelet-rich plasma (PRP) was prepared therefrom according to the method reported by Packham et al. (ct. Packham, M. A., et al, J. Exp. Med., 126, 171-189 (1967)). To 0.2 ml of the obtained PRP, 25 μl portions of solutions of each compound of the present invention (A to E) at various concentrations were added and incubated at 37° C. for three minutes. Then the aggultination of platelets was induced with arachidonic acid, collagen, ADP and PAF. The aggulutination of platelets was evaluated according to the method reported by Mustard et al. (cf. Mustard, J. F., et al., J. Lab. Clin. Med., 64, 548-559 […] with the use of an aggregometer available from Schenko or Niko Bioscience Co. In other words, this test is carried out to examine the effect of platelet aggregation (in vitro).
(§1) The tests were conducted in the same way as shown before from the diphenylethylene derivative. Results for inhibition of aggulutination are shown in Table 3 for the in-vitro test and in Table for the ex-vivo test. The acute toxicity test provided the same results as obtained with the diphenylethylene derivative.

[2] = tested on: platelets (aggregation induced by collagen or arachidonic acid); assay: Effect of inhibiting aggultination of platelets (ex vivo), oral administration to guinea pigs; type: in vivo; conditions: Cavia porcellus, Platelet, 2 h
Method: 2. Effect of inhibiting aggultination of platelets (ex vivo)
The compound A to E, which were typical examples of the compound of the present invention, were orally administered to guinea pigs. After two hours, the blood of each animal was collected from the abdominal aorta thereof under etherization. Then the effect of each compound on the aggultination of platelets induced by collagen (3 μg/ml) and arachidonic acid (50 μM) was examined. […] In other words, this test is conducted to examine the effect of platelet aggregation (ex vivo).
as §1

[3] = ADP-induced, human PRP, incubated at 37° C. for three minutes, in vitro, read-out: Effect of inhibiting ADP aggultination IC50
[4] = PAF-induced, human PRP, incubated at 37° C. for three minutes, in vitro, read-out: Effect of inhibiting PAF aggultination IC50
[5] = arachidonic acid-induced, human PRP, incubated at 37° C. for three minutes, in vitro, read-out: Effect of inhibiting arachidonic acid aggultination IC50
[6] = collagen-induced, human PRP, incubated at 37° C. for three minutes, in vitro, read-out: Effect of inhibiting collagen aggultination IC50
[7] = guinea pigs, oral, two hours after administration, arachidonic acid (50 μM), ex vivo, read-out: Effect of inhibiting arachidonic acid aggultination ED50
[8] = guinea pigs, oral, two hours after administration, collagen (3 μg/ml), ex vivo, read-out: Effect of inhibiting collagen aggultination ED50

Row | Structure (SMILES) | IC50 [1, 3] | IC50 [1, 4] | IC50 [1, 5] | IC50 [1, 6] | ED50 [2, 7] | ED50 [2, 8] | IC50 ([1]; Homo sapiens, read-out: Effect of inhibiting ADP aggultination IC50) | IC50 ([1]; Homo sapiens, read-out: Effect of inhibiting PAF aggultination IC50) | IC50 ([1]; Homo sapiens, read-out: Effect of inhibiting arachidonic acid aggultination IC50) | IC50 ([1]; Homo sapiens, read-out: Effect of inhibiting collagen aggultination IC50) | ED50 ([2]; po, read-out: Effect of inhibiting arachidonic acid aggultination ED50) | ED50 ([2]; po, read-out: Effect of inhibiting collagen aggultination ED50)
1 | COc1ccc(C(=NOC(C#N)CCCC(=O)O)c2ccc(OC)cc2)cc1 (centres unmarked) [Cpd. R, 4,4'-Dimethoxybenzophenone O-(1-cyano-4-carboxybutyl)oxime] | 85 µM | 79 µM | 50 µM | 80 µM | ≤ 100 mg/kg | ≤ 100 mg/kg |  |  |  |  |  | 
2 | Clc1ccccc1CN1CCc2sccc2C1 [Ticlopidine, reference compound] |  |  |  |  | 150 mg/kg | ≤ 200 mg/kg |  |  |  |  |  | 
3 | CON=C(CON=C(c1ccc(OC)cc1)c1ccc(OC)cc1)CC(=O)O [Cpd. N, 4,4'-Dimethoxybenzophenone O-(3-carboxy-2-methoxyiminopropyl)oxime] | 5 µM | 4.1 µM | 0.7 µM | 2.8 µM | 0.3 mg/kg | 1.3 mg/kg |  |  |  |  |  | 
4 | COc1ccc(C(=C(C#N)CCC(=O)O)c2ccc(OC)cc2)cc1 [Cpd. D, 4-Cyano-5,5-bis(4-methoxyphenyl)4-pentenoic acid] |  |  |  |  |  |  | 1.9 µM | 2.8 µM | 0.8 µM | 1.7 µM | 0.03 mg/kg | 0.05 mg/kg
5 | COc1ccc(C(=NOC(C#N)CCC(=O)O)c2ccc(OC)cc2)cc1 (centres unmarked) [Cpd. P, 4,4'-Dimethoxybenzophenone O-(1-cyano-3-carboxypropyl)oxime] | 2.7 µM | 1.5 µM | 0.4 µM | 1.1 µM | 0.3 mg/kg | 1.1 mg/kg |  |  |  |  |  | 
6 | CCOC(=O)CC(=O)CON=C(c1ccc(OC)cc1)c1ccc(OC)cc1 [Cpd. L, 4,4'-dimethoxybenzophenone-O-(3-ethoxycarbonyl-2-oxopropyl)oxime] | 0.8 µM | 1.2 µM | 0.1 µM | 0.5 µM | 30 mg/kg | 30 mg/kg |  |  |  |  |  | 
7 | COc1ccc(C(=CC(=O)NCc2ccccc2)c2ccc(OC)cc2)cc1 [Cpd. A, N-Benzyl-3,3-bis(4-methoxyphenyl)acrylamide] | 5 µM | 15 µM | 5 µM | 20 µM | 100 mg/kg | 100 mg/kg |  |  |  |  |  | 
8 | COC(=O)CCCC(C#N)ON=C(c1ccc(OC)cc1)c1ccc(OC)cc1 (centres unmarked) [Cpd. Q, 4,4'-Dimethoxybenzophenone O-(1-cyano-4-methoxycarbonylbutyl)oxime] | 35 µM | 37 µM | 12 µM | 36 µM | 50 mg/kg | 88 mg/kg |  |  |  |  |  | 
9 | CCOC(=O)CCC(C#N)=C(c1ccc(OC)cc1)c1ccc(OC)cc1 [Cpd. C, Ethyl 4-cyano-5,5-bis(4-methoxyphenyl)-4-pentenoate] | 0.2 µM | 1.8 µM | 0.07 µM | 0.2 µM | 0.03 mg/kg | 0.05 mg/kg |  |  |  |  |  | 
10 | CCOC(=O)CC(CON=C(c1ccc(OC)cc1)c1ccc(OC)cc1)=NOC [Cpd. M, 4,4'-Dimethoxybenzophenone O-(3-ethoxycarbonyl-2-methoxyiminopropyl)oxime] | 13.2 µM | 20 µM | 12.5 µM | 14 µM | 55 mg/kg | 55 mg/kg |  |  |  |  |  | 
11 | COC(=O)CCCC(C#N)=C(c1ccc(OC)cc1)c1ccc(OC)cc1 [Cpd. E, Methyl 5-cyano-6,6-bis(4-methoxyphenyl)-5-hexenoate] | 0.2 µM | 1.3 µM | 0.06 µM | 0.15 µM | 0.3 mg/kg | 1 mg/kg |  |  |  |  |  | 
12 | CCOC(=O)CCC(C#N)ON=C(c1ccc(OC)cc1)c1ccc(OC)cc1 (centres unmarked) [Cpd. O, 4,4'Dimethoxybenzophenone O-(1-cyano-3-ethoxycarbonylpropyl)oxime] | 20 µM | 14.5 µM | 7 µM | 14 µM | 0.3 mg/kg | 1 mg/kg |  |  |  |  |  | 
13 | COc1ccc(C(=CCNS(=O)(=O)c2ccccc2)c2ccc(OC)cc2)cc1 [Cpd. B, N-[3,3-Bis(4-methoxyphenyl)allyl]benzensulfonamide] | 2 µM | 2.5 µM | 0.9 µM | 1.4 µM | 20 mg/kg | 20 mg/kg |  |  |  |  |  | 
